Results: PMC4128255 (European journal of medicinal chemistry, 2014)
Values belong to the molecule of their own block, whether it stands above or below them. Ends that are not written are not given here. fluorescein = fluorescein label on the lysine ε-amino group

Assays:
[1] = target: eIF4E (GST-eIF4E) (Homo sapiens, UniProt P06730); assay: Fluorescence polarization; assay type: binding; settings: for loss in binding affinity: relative to 4EGI-1, FP; for FP ratio: Table 3, IC50 of [Z]-4EGI-1/IC50 of compound in the same plate
[2] = tested on: cyclin D1, cyclin E, Survivin, β-Actin, α-Tubulin expression in CRL-2813 melanoma cells; assay: Western blot of regulatory and housekeeping protein expression in CRL-2813 cells; assay type: cell-based, Human; settings: 6 hrs
[3] = target: GST-eIF4E fusion protein (recombinant, E. coli-expressed) (not stated (human or mouse cDNA cloned)) (UniProt P06730); assay: fluorescence polarisation
Sequence of GST-eIF4E fusion protein (recombinant, E. coli-expressed) (not stated (human or mouse cDNA cloned)) (P06730 27-217 limits assumed): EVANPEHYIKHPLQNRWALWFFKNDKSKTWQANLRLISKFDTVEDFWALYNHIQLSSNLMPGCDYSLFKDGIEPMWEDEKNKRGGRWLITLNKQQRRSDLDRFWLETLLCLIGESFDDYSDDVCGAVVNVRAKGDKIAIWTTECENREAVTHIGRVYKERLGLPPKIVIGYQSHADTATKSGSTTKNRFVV

Sequence of eIF4E (GST-eIF4E) (P06730 27-217 limits assumed): as above

Molecule: O=C(O)C(Cc1ccc(O)cc1)=NNc1nc(-c2ccc(Cl)c(Cl)c2)cs1 [Compound 10d, 2-(2-(4-(3,4-Dichlorophenyl)thiazol-2-yl)hydrazono)-3-(4-hydroxyphenyl)propanoic acid]
- loss in binding affinity [1]: 30–40%

Molecule: 3-(4-Amino-3-nitrophenyl)-2-(2-(5-(3,4-dichlorophenyl)thiazol-2-yl)hydrazono)propanoic acid [[E]-11a]
- FP ratio [1]: 1.0

Molecule: 2-(2-(5-(3,4-Dichlorophenyl)thiazol-2-yl)hydrazono)-3-(4-hydroxy-3-nitrophenyl)propanoic acid [[E]-11c]
- FP ratio [1]: 0.9

Molecule: O=C(O)/C(Cc1ccccc1[N+](=O)[O-])=N\Nc1nc(-c2ccc(O)cc2)cs1 [[Z]-12b, 2-(2-(4-(4-Hydroxyphenyl)thiazol-2-yl)hydrazono)-3-(2-nitrophenyl)propanoic acid]
- expression of housekeeping proteins β-Actin and α-Tubulin [2]: no effect
- expression of regulatory proteins cyclin D1, cyclin E, and Survivin [2]: no effect

Molecule: O=C(O)/C(Cc1ccccc1[N+](=O)[O-])=N\Nc1nc(-c2ccc(Cl)c(Cl)c2)cs1 [[Z]-4EGI-1, 2-(2-(4-(3,4-Dichlorophenyl)thiazol-2-yl)hydrazono)-3-(2-nitrophenyl)propanoic acid, reference compound]
- expression of housekeeping proteins β-Actin and α-Tubulin [2]: not affected
- expression of regulatory proteins cyclin D1, cyclin E, and Survivin [2]: markedly reduced

Molecule: O=C(O)C(Cc1ccc(C(F)(F)F)cc1)=NNc1nc(-c2ccc(Cl)c(Cl)c2)cs1 [Compound 10i, 2-(2-(4-(3,4-Dichlorophenyl)thiazol-2-yl)hydrazono)-3-(4-(trifluoromethyl)phenyl)propanoic acid]
- loss in binding affinity [1]: 30–40%

Molecule: 4-(2-Carboxy-2-(2-(5-(3,4-dichlorophenyl)thiazol-2-yl)hydrazono)ethyl)-3-nitrobenzoic acid [[E]-11b]
- FP ratio [1]: 0.6

The remaining lines, values ahead:

- FP ratio [1]: 1.1
Molecule: 2-(2-(5-(3,4-Dichlorophenyl)thiazol-2-yl)hydrazono)-3-(4-hydroxy-3-nitrophenyl)propanoic acid [[Z]-11c]

- FP ratio [1]: 0.9
Molecule: 4-(2-Carboxy-2-(2-(5-(3,4-dichlorophenyl)thiazol-2-yl)hydrazono)ethyl)-3-nitrobenzoic acid [[Z]-11b]

- Kd [3]: 3000 nM
B1: fluorescein labeled eIF4G-derived peptide …(ε-Flu)-OH (peptide)
peptide: KYTYDELFQLK(fluorescein)-OH
